Experimental data from patent US4191808A, “Method of measuring dipeptidyl-amino-peptidase activity” (Ajinomoto Co., Inc., priority 1975, dated 1980).
Blank lines part the entries; values can stand above or below the molecule they belong to. Peptide text beside a SMILES is read from it. * marks the point of attachment. pNA = O=[N+]([O-])c1ccc(N*)cc1

How the values were obtained:
human serum = experiment: Paper chromatography of products after incubation with human serum; type: biochemical; conditions: incubation 30 minutes
Protocol: The products obtained after incubating various X-L-proline p-nitroanilides with purified human submaxillary enzyme or human serum for 30 minutes as in Example 22 were examined by paper chromatography, the residues of glycine, L-alanine, L-glutamic acid, L-aspartic acid, L-lysine and L-argine being used as the N-terminal amino acids (X).
When the rate of hydrolysis of L-proline p-nitroanilide by human serum was examined, it was observed only 0.7% of hydrolysis of glycyl-L-proline p-nitroanilide.

[1] = target: T1, X-prolyl dipeptidyl-aminopeptidase in human serum (Homo sapiens, UniProt P27487); experiment: Direct photometric assay of substrate hydrolysis (p-nitroaniline liberated, 385 nm) with human serum as enzyme source; type: biochemical; conditions: for Enzyme activity (μmole/min/1 serum ± S.E.): 3 cases; for Amount of p-nitroaniline formed: 37° C., pH 8.7, 0.05 ml human serum; for Enzyme activity average ± S. E.: normal human sera
T1 construct: Even if crude enzyme such as human serum is used as enzyme source, the activity is accurately measured; from tissue; host or cells: human serum (normal subjects and patients)
T1 sequence (P27487 39-766 limits assumed): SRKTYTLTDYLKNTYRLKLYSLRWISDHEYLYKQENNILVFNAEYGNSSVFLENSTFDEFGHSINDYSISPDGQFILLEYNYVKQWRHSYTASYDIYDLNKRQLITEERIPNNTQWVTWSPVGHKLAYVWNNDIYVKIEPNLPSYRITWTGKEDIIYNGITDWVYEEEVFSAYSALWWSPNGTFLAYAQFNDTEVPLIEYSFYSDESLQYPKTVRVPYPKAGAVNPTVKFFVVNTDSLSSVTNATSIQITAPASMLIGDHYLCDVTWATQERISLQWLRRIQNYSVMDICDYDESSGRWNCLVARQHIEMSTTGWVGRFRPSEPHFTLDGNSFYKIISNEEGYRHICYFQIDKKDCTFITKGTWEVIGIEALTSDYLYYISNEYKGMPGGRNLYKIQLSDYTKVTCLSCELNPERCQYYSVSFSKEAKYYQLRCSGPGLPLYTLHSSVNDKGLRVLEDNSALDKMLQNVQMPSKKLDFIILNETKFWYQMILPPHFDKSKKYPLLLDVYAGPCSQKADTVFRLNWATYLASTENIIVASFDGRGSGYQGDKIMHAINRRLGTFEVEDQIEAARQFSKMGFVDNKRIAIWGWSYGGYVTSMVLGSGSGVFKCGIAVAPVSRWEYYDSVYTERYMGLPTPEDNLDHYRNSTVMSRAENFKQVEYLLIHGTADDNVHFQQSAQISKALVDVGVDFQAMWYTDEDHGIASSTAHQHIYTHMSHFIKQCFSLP
Protocol: The relation between the incubation time and the amount of substrate hydrolyzed was examined, glycyl-L-proline p-nitroanilide and human serum being used as substrate and enzyme source, respectively, and the assay of the substrate hydrolyzed was carried out by the following direct photometric method.
Glycyl-L-proline p-nitroanilide tosylate was dissolved in 2% non-ionic detergent (Nikkol NP-10; Nikko Chemicals, Osaka, Japan) aqueous solution in a concentration of 3 mM to prepare the substrate solution. The following four tubes were prepared:
(1) the experimental tube contained 0.5 ml of 0.15 M glycine-NaOH buffer (pH 8.7), 0.5 ml of the substrate solution, and 0.05 ml of human serum
(2) the blank tube contained 0.5 ml of the 0.15 M glycine-NaOH buffer, 0.5 ml of the substrate solution and 0.05 ml of water.
(3) the standard tube contained 0.5 ml of the buffer, 0.5 ml of the substrate and 0.05 ml of 3 mM p-nitroaniline aqueous solution.
(4) the control tube contained 0.5 ml of the buffer and 0.5 ml of the substrate.
All tubes were incubated at 37° C. for the periods listed in Table 1, and the reaction was stopped by the addition of 3.0 ml of 1M acetate buffer (pH 4.2) to every tube. To the control tube, 0.05 ml of the human serum was added after stopping the reaction. A photometer was adjusted to zero with the blank, and the absorbances of the experimental (E), control (C), and standard (S) were read at 385 nm in a cuvette with 1 cm light path. p-Nitroaniline liberated by the enzyme reaction was calculated by the equation [formula]
(§1) 3mM substrate solutions were prepared as in Example 22, various dipeptide derivatives or salts thereof being used as substrates. The relative enzyme activities toward various substrates, and the rates and optimum pHs of hydrolysis of various substrates with the enzyme were measured as in Example 22.
(§2) ^c Activities were measured at pH 7.0 in 0.15 M Trismaleate buffer or
(§3) at pH 8.7 in 0.15 M glycineNaOH buffer. The values are the mean of
The activity of X-prolyl dipeptidyl-aminopeptidase was measured as in Example 22, glycyl-L-proline p-nitroanilide and 88 normal human sera being used as substrate and enzyme, respectively.
The activity of X-prolyl dipeptidyl-aminopeptidase was measured as in Example 22, glycyl-L-proline p-nitroanilide and human sera from patients being used as substrate and enzyme sources, respectively.
The activity of X-prolyl dipeptidyl-aminopeptidase was measured as in Example 22, various X-L-prolyl p-nitroanilides, and human sera from patients being used as substrates and enzyme sources, respectively.

[2] = test system: purified human submaxillary enzyme (X-prolyl dipeptidyl-aminopeptidase); experiment: Direct photometric assay of substrate hydrolysis with purified human submaxillary enzyme; type: biochemical
Protocol: as §1
^a Activities were measured in 0.15 M Trismaleate buffer at pH 5.6-8.
and in 0.15 M glycineNaOH buffer at pH 8.2-9.4, purified human
submaxillary enzyme being used. For Lalanyl-L-proline pnitroanilide,
amidiol buffer were used instead of glycine buffer, since glycine buffer
interfered the photometry at pH 9-10.
^b Km values were measured at 7.0 in Trismaleate buffer, purified
human submaxillary enzyme being used. The values are the mean of duplicat
as §2, §3
^d The purified enzyme was obtained by the following method; The
enzyme was solubilized from the microsomal fraction by autodigestion, and
subsequently purified by (NH4)2 SO4 fractionation followed
by Sephadex G200 chromatography.

[3] = Stability of aqueous substrate solution; type: physicochemical; conditions: at the optimum pH, 4° C.
Protocol: The enzyme activity is measured without difficulty by using the dipeptide derivatives or salts thereof as substrates. An aqueous solution of X-L-proline-Y or salt thereof having a suitable concentration is first prepared. Since it requires a fairly long time to dissolve the substrate in water, it is preferred to use suitable substances capable of increasing the dissolution rate such as non-ionic detergents, acids and alcohols, or to use the substrate in the porous form which may be prepared by freeze-drying or the like. The porous substrate is most convenient for routine use for assay of the enzyme. The optimum pH of the substrate solution varies depending on the kind of substrate employed, but is easily determined by experiments. The optimum pH is usually in the range of from 6 to 9, preferably of from 7.5 to 8.9.

[4] = target: T1, X-prolyl dipeptidyl-aminopeptidase in human serum; experiment: Hydrolysis of phenylazo substrates by human serum, photometry at 493 nm / 532 nm; type: biochemical
Protocol: 3 mM of substrate solutions were prepared as in Example 22, glycyl-L-proline p-phenylazoanilide tosylate and glycyl-L-proline 4-phenylazo-1-naphthylamide being used as substrates.
The assay of enzyme activity was carried out by adding 0.05 ml of human serum to a mixture of 0.5 ml […] glycine-NaOH buffer (pH 8.7) and 0.5 ml substrate solution in the experimental tube, incubating the resulting solution at 37° C. for 30 minutes, and then stopping the reaction with 3.0 ml 1N-hydrochloric acid. The absorbances were A 493 nm=0.18 for glycyl-L-proline p-phenylazoanilide and A 532 nm=0.80 for glycyl-L-proline 4-phenylazo-1-naphthylamide.
The rate of hydrolysis of glycyl-L-proline p-phenylazoanilide was measured as in Example 26, human serum being used as enzyme. However, the blank tube contained water instead of the enzyme solution in the experimental tube, and the standard tube contained 3 mM p-phenylazo-aniline solution instead of the enzyme solution in the experimental tube.

[5] = 0.05 ml human serum, pH 8.7, 37° C., 30 minutes

Compound: NCC(=O)N1CCC[C@H]1C(=O)O [Glycyl-L-proline] (H-Gly-Pro-OH)
- products identified by paper chromatography / hydrolysis by human serum (human serum): hydrolyzed to glycine and L-proline

- Enzyme activity ([1]; human sera from patients, Acute lymphocytic leukemia, 22 cases): 38.8 ± 11.9 μmole/min/1 serum
- Enzyme activity ([1]; human sera from patients, Early essential hypertension, 20 cases): 80.94 ± 3.87 μmole/min/1 serum
- Enzyme activity ([1]; human sera from patients, Fixed essential hypertension, 17 cases): 89.29 ± 3.69 μmole/min/1 serum
- Enzyme activity (μmole/min/1 serum ± S.E.) ([1]; human sera from patients, Gastric Cancer): 25.3 ± 3.0 μmole/min/1 serum
- Enzyme activity ([1]; human sera from patients, Gastric Cancer, 37 cases): 38.4 ± 2.3 μmole/min/1 serum
- Enzyme activity (μmole/min/1 serum ± S.E.) ([1]; human sera from patients, Hepatitis): 143.0 ± 31.8 μmole/min/1 serum
- Enzyme activity ([1]; human sera from patients, Hepatitis, 23 cases): 75.8 ± 28.5 μmole/min/1 serum
- Enzyme activity ([1]; human sera from patients, Hodgkin's disease, 15 cases): 31.0 ± 9.5 μmole/min/1 serum
- Enzyme activity ([1]; human sera from patients, Lymphosarcoma, 11 cases): 36.3 ± 5.6 μmole/min/1 serum
- Enzyme activity ([1]; human sera from patients, Pulmonary Cancer, 17 cases): 39.8 ± 2.6 μmole/min/1 serum
- Enzyme activity (μmole/min/1 serum ± S.E.) ([1]; human sera, Normal (control)): 50.4 ± 15.0 μmole/min/1 serum
- Enzyme activity ([1]; human sera, Normal (control), 88 cases): 54.9 ± 1.5 μmole/min/1 serum
- Relative enzyme activity (%) Human serum pH 7.0 ([1]; human serum, pH 7.0, 0.15 M Tris-maleate buffer, glycyl-L-proline p-nitroanilide = 100): 100%
- Relative enzyme activity (%) Human serum pH 8.7 ([1]; human serum, pH 8.7, 0.15 M glycine-NaOH buffer, glycyl-L-proline p-nitroanilide = 100): 100%
- Amount of p-nitroaniline formed ([1]; incubation time 15 min): 18.11 n mole
- Amount of p-nitroaniline formed ([1]; incubation time 30 min): 35.43 n mole
- Amount of p-nitroaniline formed ([1]; incubation time 60 min): 71.65 n mole
- Amount of p-nitroaniline formed ([1]; incubation time 90 min): 100.79 n mole
- Amount of p-nitroaniline formed ([1]; incubation time 120 min): 135.43 n mole
- Enzyme activity average ± S. E. ([1]; Older Female, 17 subjects, 48-76 years): 58.16 ± 4.37 μ mole/min/1 serum
- Enzyme activity average ± S. E. ([1]; Older Male, 29 subjects, 41-81 years): 53.18 ± 2.43 μ mole/min/1 serum
- Enzyme activity average ± S. E. ([1]; Older, 46 subjects, 41-81 years): 55.04 ± 2.23 μ mole/min/1 serum
- Enzyme activity average ± S. E. ([1]; Total Female, 35 subjects, 20-76 years): 52.49 ± 2.47 μ mole/min/1 serum
- Enzyme activity average ± S. E. ([1]; Total Male, 53 subjects, 15-81 years): 56.30 ± 1.90 μ mole/min/1 serum
- Enzyme activity average ± S. E. ([1]; Total, 88 subjects, 15-81 years): 54.88 ± 1.50 μ mole/min/1 serum
- Enzyme activity average ± S. E. ([1]; Younger Female, 18 subjects, 20-40 years): 47.59 ± 2.07 μ mole/min/1 serum
- Enzyme activity average ± S. E. ([1]; Younger Male, 24 subjects, 15-40 years): 60.10 ± 2.84 μ mole/min/1 serum
- Enzyme activity average ± S. E. ([1]; Younger, 42 subjects, 15-40 years): 54.76 ± 2.07 μ mole/min/1 serum
- Optimum pH ([2]; Tris-maleate, glycine-NaOH or amidiol buffer): 8.5-8.7
- Relative enzyme activity (%) Purified human submaxillary enzyme pH 7.0 ([2]; pH 7.0, 0.15 M Tris-maleate buffer, glycyl-L-proline p-nitroanilide = 100): 100%
- Km ([2]; pH 7.0, Tris-maleate buffer, mean of duplicate experiments): 330 µM
- storage of substrate solution without appreciable degradation [3]: more than a week
Compound: NCC(=O)N1CCC[C@H]1C(=O)Nc1ccc([N+](=O)[O-])cc1 [glycyl-L-proline p-nitroanilide, Glycyl-L-proline p-nitroanilide] (H-Gly-Pro-pNA)
- products identified by paper chromatography / hydrolysis by human serum (human serum): glycyl-L-proline, glycine, L-proline and p-nitroaniline were identified

Compound: Cc1ccc(S(=O)(=O)O)cc1.NCC(=O)N1CCC[C@H]1C(=O)Nc1ccc(N=Nc2ccccc2)cc1 [glycyl-L-proline p-phenylazoanilide, Glycyl-L-proline p-phenylazoanilide tosylate]
- absorbance A 493 nm [4, 5]: 0.18
- rate of hydrolysis ([4]; human serum as enzyme, as in Example 26): 18.7 n mole/min./l serum

- absorbance A 532 nm [4, 5]: 0.80
Compound: NCC(=O)N1CCC[C@H]1C(=O)Nc1ccc(N=Nc2ccccc2)c2ccccc12 [Glycyl-L-proline 4-phenylazo-1-naphthyl amide]
